Results taken from US5039528A, “EAA antagonists as anti-emetic drugs” (priority 1989, dated 1991).
Where two headings read alike, the source gives them in different places.

Legend:
[1] = statement in text, cited from earlier work
dogs = experiment: Emesis induction by NMDA in dogs; blockage by D-AP5; assay type: in vivo, dog; settings: IV, in the vicinity of 5 mg/kg
Experimental: Therefore, each dog (all were young adults) was used for more than one experiment. Typically, one or more tests would be done using NMDA to determine an effective dosage for an individual dog. After the dose was established, an experiment was conducted on a subsequent day in which the dog also received 2 mg/kg D-AP5 subcutaneously (SC), along with the NMDA. On the day after that, NMDA was administered alone, to ensure that the emetic response was unchanged and the dog had not developed tolerance or sustained damage to the emesis-mediating reflexes.

ferrets [2] = experiment: Emesis induction by cisplatin (8 mg/kg IV) in ferrets; blockage by Kyn; assay type: in vivo, ferret; settings: cisplatin 8 mg/kg IV alone, 4 ferrets, 5 h observation
Experimental: Four ferrets (a control group) received 8 mg/kg IV cisplatin, a chemotherapeutic drug which has a powerful emetic effect.
Nine ferrets were treated with cisplatin (8 mg/kg IV), and with Kyn, either by bolus (one-shot) injection using 150 mg/kg, or by continuous IV infusion using 50 mg/kg/hour.

ferrets [3] = experiment: Emesis induction by cisplatin (10 mg/kg IV) in ferrets; blockage by D-AP5/CNQX; assay type: in vivo, ferret; settings: cisplatin 10 mg/kg IV alone, five ferrets, 5 h
Experimental: Since suitable agents such as D-AP5 are available that can block NMDA receptors without crossing the BBB, a mixture of CNQX and D-AP5 was tested to see whether a mixture of an NMDA antagonist and a non-NMDA antagonist would have anti-emetic properties. The dosage of cisplatin was increased to 10 mg/kg IV, since only 3 out of 4 of the control animals vomited when 8 mg/kg was used as described in Example 4. This increased the stringency of the test.
Five control animals (ferrets) were treated.
Five test animals were treated by cisplatin, 10 mg/kg IV, followed by intravenous infusion of a mixture of 15 mg/kg/hr CNQX and 5 mg/kg/hr D-AP5.

NMDA receptors = experiment: Chick retina assay: protection against excitotoxic action of NMDA; assay type: cell-based
Description: (§1) Antagonist potencies were established in a chick retina assay which has
(§2) (NMDA, KA and Quis) for excitotoxic properties and EAA antagonists for
(§3) potency in protecting the retina against the excitotoxic action of such
(§4) agonists. The concentration of antagonist required to totally prevent the
(§5) toxic action of an agonist was used to compare antagonists for potency.
(§6) For purposes of illustration, the data were normalized by assigning a
(§7) EAA antagonist properties have been described in each category. Antagonis
(§8) potencies were established in a chick retina assay which has been used by
(§9) Quis) for excitotoxic properties and EAA antagonists for potency in
(§10) protecting the retina against the excitotoxic action of such agonists.
(§11) concentration of antagonist required to totally prevent the toxic action
(§12) of an agonist was used to compare antagonists for potency. For purposes o
(§13) to kynurenic acid vs KA (see table 1) and all other values were adjusted

non-NMDA receptors = experiment: Chick retina assay: blocking non-NMDA receptors; assay type: cell-based; settings: chick retinas, relative to Kyn
KA receptors = experiment: Chick retina assay: protection against excitotoxic action of KA; assay type: cell-based; settings: Table 1, normalized to kynurenic acid vs KA = 1
Description: as §1, §2, §3, §4, §5, §6, §7, §8, §9, §10, §11, §12, §13

Quis receptors = experiment: Chick retina assay: protection against excitotoxic action of Quis; assay type: cell-based; settings: Table 1, normalized to kynurenic acid vs KA = 1
Description: as §1, §2, §3, §4, §5, §6, §7, §8, §9, §10, §11, §12, §13

[4] = tested on: EAA receptors (NMDA, KA, Quis); settings: cited from earlier work
cerebral ischemia = settings: animal experiments, cerebral ischemia (stroke); cited from earlier work
humans = settings: cited from earlier work
ferrets [5] = settings: ferrets treated with cisplatin; cited from earlier work
cancer patients = settings: cited from earlier work
5-HT M receptors = settings: cited from earlier work
[6] = of 20 cancer patients, no control group

Structure (SMILES): CN[C@H](CC(=O)O)C(=O)O [NMDA, N-methyl-D-aspartate]
- penetration of blood brain barriers [1]: does not penetrate the BBB
- emetic response to NMDA (dogs): vomiting can be induced

Structure (SMILES): N.N.[Cl][Pt][Cl] [cisplatin]
- malaise after cisplatin (ferrets [2]): All four control animals displayed persistent malaise
- vomiting after cisplatin (ferrets [2]): One control animal did not vomit, but the other three vomited repeatedly
- appearance of illness (ferrets [3]): all appeared ill throughout the observation period

Structure (SMILES): N#Cc1cc2[nH]c(=O)c(=O)[nH]c2cc1[N+](=O)[O-] [CNQX]
- EAA antagonist potency vs NMDA (NMDA receptors; Table 1, normalized to kynurenic acid vs KA = 1): 5
- times more powerful than Kyn in blocking non-NMDA receptors (non-NMDA receptors): approximately 30 times
- EAA antagonist potency vs KA (KA receptors): 30
- EAA antagonist potency vs Quis (Quis receptors): 67
- block of non-NMDA vs NMDA receptors [4]: block non-NMDA receptors substantially more powerfully than NMDA receptors
- potency compared with kynurenic or 7-chloro-kynurenic acid [4]: significantly more powerful

Structure (SMILES): c1ccc(C2(N3CCCCC3)CCCCC2)cc1 [PCP, phencyclidine]
- EAA antagonist potency vs NMDA (NMDA receptors; Table 2, normalized to kynurenic acid vs KA = 1): 2000
- neuroprotective effects (cerebral ischemia): powerful neuroprotective effects
- psychotic effects (humans; humans): psychotic effects
- serious side effects (humans; interaction with NMDA receptors throughout the brain): psychotic disturbances and pathomorphological changes in cerebrocortical neurons
- penetration of blood brain barriers [1]: readily penetrate BBB
- penetration of blood brain barriers ([1]; listed as phencyclidine): permeate easily through BBB's

Structure (SMILES): CN1C2CCCC1CC(NC(=O)c1nn(C)c3ccccc13)C2 (centres unmarked) [BRL 43694]
- preventing or reducing the severity of emesis (ferrets [5]): effective in preventing or reducing the severity of emesis
- patients with both nausea and vomiting (delayed in onset) (cancer patients; [6]): 9 patients
- patients with mild nausea (cancer patients; [6]): 4 patients
- patients with neither nausea nor vomiting (cancer patients; [6]): 7 patients
- cisplatin patients with nausea and vomiting (cancer patients; of the 5 patients that received cisplatin): 4 patients
- 5-HT M receptor antagonism (5-HT M receptors): more powerful and selective 5-HT M receptor antagonist than metoclopramide
